The text below walks through data of US20190230931A1, “SURFACE TREATMENTS” (priority 2014, published 2019).

Converted amounts (≈) assume the structure as drawn. Read-outs that look alike come from different tables or passages of the source.

What all share (assay type): cell-based
Assay [1] relates to Pseudomonas aeruginosa clinical isolate. The assay is described as follows: Susceptibility of clinical isolates by broth microdilution (MIC/MBC). The note with it: for MBC: broth microdilution and plating, read-out: Minimum bactericidal concentration (MBC); for MIC: broth microdilution, 37° C., 18 hours, read-out: Minimum inhibitory concentration (MIC). Here is the method:
(§1) Frozen stocks of the Staphylococcus sp. inocula were thawed at 37° C. for 10 minutes and vortexed before plating on blood agar and incubating at 37° C. for 18 hours. Single colonies were used to inoculate a volume of 10 mL of Mueller-Hinton Broth (MHB) and incubated at 37° C. for 18 hours in a shaking incubator (200 rpm). A volume of 100 μL of the actively growing culture was then used to inoculate a volume of 100 mL of MHB and incubated at 37° C. for 6½ hours. […] A volume of 100 μL of each dilution step was spread on plate count agar (PCA) plates and incubated at 37° C. for 18 hours to confirm viable cell numbers. The dilution to 10^−7 was used in the following steps.
(§2) The susceptibility of clinical isolates of Staphylococcus aureus, Escherichia coli and Pseudomonas aeruginosa to the constructs designated Spm-Ad-DOPE (9a) and NCSeCH2CO—CMG(2)-Ad-DOPE was determined by broth microdilution. Actively growing cultures of each clinical isolate were prepared as described above to obtain cultures with the following turbidities (OD600):
(§3) Serial dilutions of each culture to 10^−6 were prepared and used as inocula. Volumes of 50 μL of each dilution was spread on PCA plates and incubated at 37° C. for 18 hours. A two-fold dilution series for each of the two constructs, spermine (2) and selenous acid (H2SeO3) were prepared in sterile 96-well plates. Volumes of 50 μL of inocula were dispensed into a well containing a volume of 50 μL of the serially diluted construct, spermine (2) or selenous acid (H2SeO3). Following gentle mixing the plates were incubated in the dark at 37° C. for 18 hours (200 rpm). Minimum inhibitory concentrations (MIC) were thereby observed and minimum bactericidal concentrations (MBC) determined by plating aliquots from each well.

The subject of assay [2] is Escherichia coli clinical isolate. The description is as above. Particulars: for MBC: broth microdilution and plating, read-out: Minimum bactericidal concentration (MBC); for MIC: broth microdilution, 37° C., 18 hours, read-out: Minimum inhibitory concentration (MIC). As to the method:
as §1, §2, §3

Assay [3] concerns Staphylococcus aureus clinical isolate. The description is as above. The note with it: for MBC: broth microdilution and plating, read-out: Minimum bactericidal concentration (MBC); for MIC: broth microdilution, 37° C., 18 hours, read-out: Minimum inhibitory concentration (MIC). As to the method: as §1, §2, §3
The subject of assay [4] is Red blood cells (RBCs; group O). The assay can be described thus: Adherence of red blood cells to treated microplate well surfaces.
Procedure: A stock solution of the construct designated Spm-Ad-DOPE (9a) was prepared in methanol at a concentration of 10 mg/mL. The stock solution was diluted to a concentration of 250 μg/mL in methanol and 25 μL volumes of the diluted stock solutions dispensed into each of the round bottomed wells of a multi-well microplate (Corning Inc.). The plates were allowed to dry before washing the wells 6 times with deionized water.
Red blood cells (RBCs; group O, up to 2 weeks old) were washed and re-suspended at a concentration of 1% packed cell volume (pcv) in phosphate-buffered saline (PBS). A 50 μL volume of the suspension of RBCs was dispensed into each of the wells and incubated for 1 hour at room temperature before washing 6 times with PBS. The RBCs were fixed by adding a 50 μL volume of a solution of glutaraldehyde in PBS at a concentration of 2.5% (w/v) and incubating for 10 minutes before washing each well with water and allowing to dry. The RBCs were lysed by adding a 50 μL volume of deionized water and incubating for 10 minutes before discarding the water and allowing to dry.
For scanning electron microscopy (SEM) the bottom of each well was cut from the plate and the treated surface sputter coated with platinum prior to imaging.
A two-fold serial dilution from each of the first wells was then performed. […]

With `O=[Se](O)O` [H2SeO3, selenous acid], the MBC in assay [1], in assay [2] and in assay [3] was greater than 1985.01 µM each time. In addition, the MIC in assay [1] was greater than 1985.01 µM; in assay [2] it was 1985.01 µM (≈ 256 µg/mL); in assay [3], 1985.01 µM (≈ 256 µg/mL).

For `NCCCNCCCCNCCCN` [Spermine (2), spermine], the “Attachment of RBCs to treated wells” value in assay [4] (spermine alone) is given as “not uniform or reproducible”; in assay [4] (spermine alone in water) it was “No cells were observed to adhere to the surface”. Besides, the results for the MBC in assay [1] (Pseudomonas aeruginosa), in assay [2] (Escherichia coli) and in assay [3] (Staphylococcus aureus) were greater than 3790 µM, 118 µM (≈ 23.9 µg/mL) and 947 µM (≈ 192 µg/mL), respectively. The MIC was 3790 µM (≈ 766 µg/mL) in assay [1] (Pseudomonas aeruginosa), 118 µM (≈ 23.9 µg/mL) in assay [2] (Escherichia coli) and 473 µM (≈ 95.8 µg/mL) in assay [3] (Staphylococcus aureus).
